The values below come from patent US20140235840A1, “NEW SYNTHESIS OF FUCOSE” (GLYCOM A/S, priority 2011, published 2014).

A short description of data set [1]: Partition studies between organic solvent and water. It counts as physicochemical. The conditions noted are these: for Number of volumes of organic solvent: to reach at least 95% of recovery using one volume of organic solvent each time relative to one volume of aqueous solution; for solubility in organic solvents: as compared to aqueous solvents; for amount of compound from aqueous phase / amount of compound from organic phase: 197 mg (cyclohexylidene) or 150 mg (isopropylidene) partitioned. How it is done: 1,2-O-Cyclohexylidene-6-deoxy-β-L-talofuranose (197 mg) was partitioned between water (10 mL) and methylene chloride (10 mL), layers separated and the residual amount of solutions in the separatory funnel were partitioned with extra amount of water (5 mL) and methylene chloride (5 mL). The combined organic phases were evaporated and dried in vacuo (50° C., <1 mbar, 1 hour) to give 140 mg of the title compound. The aqueous solution gave 53 mg after lyophilisation and drying in vacuo (50° C., <1 mbar, 2 hrs). Using the same procedure, partition between ethyl acetate and water provided 127 mg of the title compound from ethyl acetate phase and 70 mg from the aqueous phase.
Analogously, 1,2-O-isopropylidene-6-deoxy-β-L-talofuranose (150 mg) was partitioned between methylene chloride (24 mg) and aqueous phase (126 mg). Partition between ethyl acetate and water furnished 7 mg and 143 mg of the title compound, respectively.

The nature of data set [2]: shake-flask partition; gravimetric recovery from each phase. Conditions: not told.
Where [3] appears, read: conclusion in words from partition results.
[4] abbreviates: solvent system ethyl acetate-water.

As usually defined, the logP is a log measure of how a compound divides between an organic and an aqueous phase. For the molecule `C[C@H](O)[C@H]1O[C@@H]2OC3(CCCCC3)O[C@@H]2[C@@H]1O` [1,2-O-Cyclohexylidene-6-deoxy-β-L-talofuranose], in data set [1] (CH2Cl2-water), the “Number of volumes of organic solvent” value is recorded as 3. Further, in data set [1] (setting [3]), the “affinity to organic solvents versus aqueous media” value is recorded as “higher affinity to organic solvents as compared to aqueous media” and the “solubility in organic solvents” value is “much higher solubility”. Further, in data set [1] (ethyl acetate-water), the “amount of compound from aqueous phase” value is on record as 70 mg, the “amount of compound from organic phase” value is listed as 127 mg and the “Number of volumes of organic solvent” value came out at 3. In addition, in data set [1] (methylene chloride-water), the “amount of compound from aqueous phase” value was 53 mg and the “amount of compound from organic phase” value came to 140 mg. In addition, in data set [1] (solvent system CH2Cl2-water), the “Partition P (=[C]org/[C]aq)” value stood at 2.64 and the logP is given as 0.42. In addition, in data set [1] (setting [4]), the “Partition P (=[C]org/[C]aq)” value is listed as 1.81 and the logP is listed as 0.26.
Turning to `C[C@H](O)[C@H]1O[C@@H]2OC(C)(C)O[C@@H]2[C@@H]1O` [1,2-O-isopropylidene-6-deoxy-β-L-talofuranose], in data set [1] (CH2Cl2-water), the “Number of volumes of organic solvent” value was 18. Moreover, in data set [1] (setting [3]), the “affinity to organic solvents versus aqueous media” value is listed as “higher affinity to aqueous medium”, the “solubility in aqueous solutions” value is given as “highly soluble” and the “solubility in organic solvents” value was “almost insoluble”. For the same molecule, in data set [1] (ethyl acetate-water), the “amount of compound from aqueous phase” value was determined as 143 mg, the “amount of compound from organic phase” value was found to be 7 mg and the “Number of volumes of organic solvent” value turned out to be 21. In data set [1] (methylene chloride-water), the “amount of compound from aqueous phase” value was 126 mg and the “amount of compound from organic phase” value was 24 mg. Moreover, in data set [1] (solvent system CH2Cl2-water), the “Partition P (=[C]org/[C]aq)” value is 0.19. Besides, the “Partition P (=[C]org/[C]aq)” value in data set [1] (setting [4]) turned out to be 0.16. In addition, in data set [2], the “log partition ethyl acetate / water” value is listed as 0.16 concentration ratio (mass-based) and the “log partition methylene chloride (CH2Cl2) / water” value is given as 0.19 concentration ratio (mass-based).
